Tests used:
Assay type in all cases: cell-based
[1] = system: recruitment of CDK9 to HEXIM1 gene in LNCaP cells; experiment: ChIP assay, CDK9 recruitment to HEXIM1 gene, LNCaP cells; settings: 5 mM HMBA or 50 μM 4a1, 90 minutes
Procedure: (§1) FIGS. 6(A-B) illustrate graphs showing HEXIM1 graphs showing HMBA and 4a1 induced recruitment of CDK9 to HEXIM1 promoter in MCF7 and LNCaP cells treated with 5 mM HMBA or 50 μM 4a1 for 90 minutes.
(§2) ChIP assays were carried out as previously described. Anti-CDK9 antibody (D-7; cat# sc-13130) was obtained from Santa Cruz Biotechnology.
(§3) The induction of HEXIM1 by HMBA appears to involve the release of free P-TEFb from 7SK snRNP, and recruitment of P-TEFb to HEXIM1 gene. P-TEFb is a heterodimer between the cyclin-dependent kinase 9 (Cdk9) and its regulatory subunit Cyclin T1 (CycT1). We thus determined the regulation of the recruitment of CDK9 to the HEXIM1 coding sequence by HMBA and 4a1.

[2] = system: recruitment of CDK9 to HEXIM1 gene in MCF7 cells; experiment: ChIP assay, CDK9 recruitment to HEXIM1 gene, MCF7 cells; settings: 5 mM HMBA or 50 μM 4a1, 90 minutes
Procedure: as §1, §2, §3

[3] = system: triple negative MDA-MB-231 breast cancer cells; experiment: Nile red staining of lipid droplets (differentiation marker), MDA-MB-231 cells; settings: 72 hours
Procedure: FIGS. 8(A-B) illustrate images showing (A) MCF7 cells transfected with control or HEXIM1 siRNA or (B) MDA-MB-231 transfected with control or HEXIM1 expression vector treated with vehicle (DMSO), HMBA, or 4a1 for 72 hours. Lower panels show Western blot analyses of HEXIM1 expression in MDA-MB-231 cells transfected with control or expression vector for Flag-tagged HEXIM1.
Cells were stained with Nile red for lipid droplets (marker of cell differentiation). Briefly, the stock solution of Nile red 1 mg/ml in acetone was diluted in PBS (1:1000). The fixed cells (4% paraformaldehyde) were incubated with diluted Nile red for 5 minutes at room temperature, rinsed with PBS and observed for the presence of lipid droplets by confocal microscopy. Images were digitally captured using a Leica microscope (Leica Microsystems Inc, IL, USA).

[4] = system: HEXIM1 expression in LNCaP prostate cancer cells; experiment: HEXIM1 expression by western blot in LNCaP cells treated with HMBA analogs
Procedure: FIGS. 2(A-B) illustrate Western blots and a graph showing the effect of HMBA analogs on HEXIM1 expression. LNCaP cells were treated with vehicle, HMBA (5 mM) and its analogs at 500 μM for 24 h. Level of HEXIM1 (upper panel) and β-actin (lower panel) was analyzed by Western blot of cell extracts with HEXIM1 antibody and β-actin antibody respectively. The bands of HEXIM1 were quantified using ImageJ (NIH) and normalized to β-actin. The results are the representative of three independent experiments.
FIGS. 3(A-B) illustrate Western blots and a graph showing lower concentration of HMBA analogs on HEXIM1 expression. LNCaP cells were treated with vehicle, HMBA (5 mM) and identified analogs at 100 μM for 24 h. Level of HEXIM1 (upper panel) and β-actin (lower panel) was analyzed by Western blot of cell extracts with HEXIM1 antibody and β-actin antibody respectively. The bands of HEXIM1 were quantified using ImageJ (NIH) and normalized to β-actin. The results are the representative of three independent experiments.
FIGS. 4(A-B) illustrate Western blots and a graph showing dose-dependent study of compound 4a1 and HMBA on HEXIM1 expression. Level of HEXIM1 (upper panel) and β-actin (lower panel) was analyzed by Western blot of cell extracts with HEXIM1 antibody and β-actin antibody respectively.
HMBA analogs described herein can be synthesized based on the HMBA scaffold and then selected for their ability to induce HEXIM1 expression in an in vitro cell assay. For example, the synthesized HMBA analogs can be administered to cells, such as LNCaP prostate cancer cells, and the level of HEXIM1 in such cells can be measured using western blot analyses. The level of HEXIM1 expression of cells that are treated with a potential HMBA analog can be compared to control cells treated without the HMBA analog or with HMBA. Control cells (untreated or treated with HMBA) can be assigned a relative HEXIM1 expression value. Induction or promotion of HEXIM1 expression is achieved when the HEXIM1 expression relative to the control is increased at least about 1%, 5%, 10%, 15%, 20%, 30%, 50%, 75%, 100%, 200%, or more.
The synthesis of the symmetrical and unsymmetrical derivatives is described in Scheme 1 and 2, respectively. For the symmetrical analogs, moieties A and C were kept identical. Besides the acetyl group of HMBA, methanesulfonyl group, propionyl group or butyryl group were introduced. In addition, a bulky benzoyl group was introduced. The active proton in the amide moiety was replaced with methyl group to generate a series of analogs with lower solubility. For the moiety B, various linkers such as 1,3-propylene, […] 1,4-cyclohexylene, 1,4-phenylene-bis(methylene), 1,4-cyclohexylene-bis(methylene) were tested for optimization. For the unsymmetrical analogs, the A and B moieties were kept the same as HMBA while the C moiety was modified with aryl or alkyl amide. A total of 32 compounds were synthesized, and these compounds were examined for their potency to induce HEXIM1 in LNCaP prostate cancer cells. HMBA (5 mM) was used as a positive control.
Therefore, these three compounds were screened at lower concentrations.

COc1ccc(CC(=O)NCCCCCCNC(C)=O)cc1 [Compound 4a1]
Recruitment of CDK9 to HEXIM1 gene [1]: induce recruitment of CDK9
Recruitment of CDK9 to HEXIM1 gene [2]: induce recruitment of CDK9
Cell differentiation (lipid droplets, Nile red) [3]: induced differentiation
HEXIM1 expression compared to the vehicle treatment (cutoff 2.5 fold) ([4]; LNCaP cells, analogs at 500 μM, 24 h, western blot normalized to β-actin): did not reach the cutoff
Dose-dependent study on HEXIM1 expression ([4]; western blot, FIG. 4): dose-dependently induced HEXIM1 expression
